Laboratory results: patent US8268827B2, “Pyridazinone derivatives as PARP inhibitors” (Istituto di Ricerche di Biologia Molecolare P. Angeletti …, priority 2007, dated 2012)
Counter-ions that a name gives are not always drawn.

Test system: BRCA-1 silenced HeLa cells (HeLa shBRCA1-GFP)
Assay: Proliferation assay in BRCA-1 silenced HeLa cells
Assay type: cell-based
Settings: Homo sapiens; BRCA1 silenced HeLa cells, 168 hours; read-out: CC50 in the BRCA1 silenced HeLa cells
Method in brief: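 HeLa cells with lentiviral shRNA BRCA1 knockdown (>80%), compared with control-vector HeLa, seeded at 300 cells/well. Compound exposure lasted 168 h at 37° C. Viability was read as resazurin-to-resorufin fluorescence (ex 550/em 590 nm).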

Row | SMILES | CC50 [nM]
1 | CCc1cc(Cc2ccc(F)c(C(=O)N3CCN(C4CCCC4)C(=O)C3)c2)n[nH]c1=O [Example 30, 3-{3-[(4-Cyclopentyl-3-oxopiperazin-1-yl)carbonyl]-4-fluorobenzyl}-5-ethyl-6-oxo-1,6-dihydropyridazin-1-ium trifluoroacetate] | < 50
2 | C[C@@H]1CCC[C@@H]2CN(C(=O)c3cc(Cc4cc(C(F)(F)F)c(=O)[nH]n4)ccc3F)CC(=O)N21 (single isomer, unassigned) [88 (VV2)] | 50 to 500
3 | CCN1C(=O)CN(C(=O)c2cc(Cc3n[nH]c(=O)c(C(F)(F)F)c3C)ccc2F)C[C@@H]1C [Example 155, 6-(3-{[(3S)-4-ethyl-3-methyl-5-oxopiperazin-1-yl]carbonyl}-4-fluorobenzyl)-5-methyl-4-(trifluoromethyl)pyridazin-3(2H)-one] | < 50
4 | Cc1c(Cc2ccc(F)c(C(=O)N3CCN(C4CCc5ccccc5C4)C(=O)C3)c2)n[nH]c(=O)c1C (stereo not drawn) [Example 70, 6-(4-Fluoro-3-{[3-oxo-4-(1,2,3,4-tetrahydronaphthalen-2-yl)piperazin-1-yl]carbonyl}benzyl)-4,5-dimethyl-3-oxo-2,3-dihydropyridazin-1-ium trifluoroacetate] | < 50
5 | Cc1c(Cc2ccc(F)c(C(=O)N3CC(=O)N4[C@H](CCC[C@H]4C)C3)c2)n[nH]c(=O)c1C (single isomer, unassigned) [86 (TT2)] | 50 to 500
6 | Cc1c(Cc2ccc(F)c(C(=O)N3CC(=O)N([C@@H]4CCOC4)[C@@H](C)C3)c2)n[nH]c(=O)c1C [Example 157, 6-[4-fluoro-3-({(3S)-3-methyl-5-oxo-4-[(3R)-tetrahydrofuran-3-yl]piperazin-1-yl}carbonyl)benzyl]-4,5-dimethylpyridazin-3(2H)-one] | 50 to 500
7 | Cc1c(Cc2ccc(F)c(C(=O)N3CCN(C4COC5(CCCC5)C4)C(=O)C3)c2)n[nH]c(=O)c1C (stereo not drawn) [Example 106, 6-(4-Fluoro-3-{[4-(1-oxaspiro[4.4]non-3-yl)-3-oxopiperazin-1-yl]carbonyl}benzyl)-4,5-dimethylpyridazin-3(2H)-one trifluoroacetate] | 50 to 500
8 | CCC(CC)N1CCN(C(=O)c2cc(Cc3n[nH]c(=O)c(C)c3C)ccc2F)CC1=O [Example 167, 6-(3-{[4-(1-Ethylpropyl)-3-oxopiperazin-1-yl]carbonyl}-4-fluorobenzyl)-4,5-dimethylpyridazin-3(2H)-one] | < 50
9 | Cc1c(Cc2ccc(F)c(C(=O)N3CC(=O)N(c4ccc(F)c(C#N)c4)[C@H](C)C3)c2)n[nH]c(=O)c1C [Example 197, 5-((2R)-4-{5-[(4,5-Dimethyl-6-oxo-1,6-dihydropyridazin-3-yl)methyl]-2-fluorobenzoyl}-2-methyl-6-oxopiperazin-1-yl)-2-fluorobenzonitrile] | < 50
10 | Cc1c(Cc2ccc(F)c(C(=O)N3CC(=O)N(C(c4ccccc4)C(F)F)C(C)C3)c2)n[nH]c(=O)c1C (stereo not drawn) [Example 131, 6-(3-{[4-(2,2-Difluoro-1-phenylethyl)-3-methyl-5-oxopiperazin-1-yl]carbonyl}-4-fluorobenzyl)-4,5-dimethylpyridazin-3(2H)-one trifluoroacetate] | < 50
11 | Cc1c(Cc2ccc(F)c(C(=O)N3CC(=O)N4[C@@H](CCC[C@H]4C)C3)c2)n[nH]c(=O)c1C (racemic) [Example 85, 6-{4-Fluoro-3-[(cis-6-methyl-4-oxooctahydro-2H-pyrido[1,2-a]pyrazin-2-yl)carbonyl]benzyl}-4,5-dimethyl-3-oxo-2,3-dihydropyridazin-1-ium trifluoroacetate] | < 50
12 | Cc1c(Cc2ccc(F)c(C(=O)N3CC(=O)N4[C@@H](CCC[C@@H]4C)C3)c2)n[nH]c(=O)c1C (single isomer, unassigned) [86 (TT1)] | < 50
13 | CCN1CCN(C(=O)c2cc(Cc3n[nH]c(=O)c(C(F)(F)F)c3C)ccc2F)CC1=O [Example 105, 3-{3-[(4-Ethyl-3-oxopiperazin-1-yl)carbonyl]-4-fluorobenzyl}-4-methyl-6-oxo-5-(trifluoromethyl)-1,6-dihydropyridazin-1-ium trifluoroacetate] | < 50
14 | Cc1c(Cc2ccc(F)c(C(=O)N3CC(=O)N(C4CCC4)[C@H](C)C3)c2)n[nH]c(=O)c1C [Example 175, 6-(3-{[(3R)-4-Cyclobutyl-3-methyl-5-oxopiperazin-1-yl]carbonyl}-4-fluorobenzyl)-4,5-dimethylpyridazin-3(2H)-one] | < 50
15 | Cc1c(Cc2ccc(F)c(C(=O)N3CC(=O)N(c4cccc(Cl)c4)[C@@H](C)C3)c2)n[nH]c(=O)c1C [Example 177, 6-(3-{[(3S)-4-(3-Chlorophenyl)-3-methyl-5-oxopiperazin-1-yl]carbonyl}-4-fluorobenzyl)-4,5-dimethylpyridazin-3(2H)-one] | < 50
16 | Cc1c(Cc2ccc(F)c(C(=O)N3CCN([C@@H](C)C(F)(F)F)C(=O)C3)c2)n[nH]c(=O)c1C [Example 192, 6-[4-Fluoro-3-({3-oxo-4-[(1S)-2,2,2-trifluoro-1-methylethyl]piperazin-1-yl}carbonyl)benzyl]-4,5-dimethylpyridazin-3(2H)-one] | 50 to 500
17 | Cc1c(Cc2ccc(F)c(C(=O)N3CCN(C(c4ccc(F)cc4)C(F)F)C(=O)C3)c2)n[nH]c(=O)c1C (stereo not drawn) [Example 118, 6-[3-({4-[2,2-difluoro-1-(4-fluorophenyl)ethyl]-3-oxopiperazin-1-yl}carbonyl)-4-fluorobenzyl]-4,5-dimethyl-3-oxo-2,3-dihydropyridazin-1-ium trifluoroacetate] | 50 to 500
18 | CCC1CN(C(=O)c2cc(Cc3n[nH]c(=O)c(C)c3C)ccc2F)CC(=O)N1C1CCCCC1 (stereo not drawn) [Example 184, 6-{3-[(4-Cyclohexyl-3-ethyl-5-oxopiperazin-1-yl)carbonyl]-4-fluorobenzyl}-4,5-dimethylpyridazin-3(2H)-one] | 50 to 500
19 | CCc1cc(Cc2ccc(F)c(C(=O)N3CCN(c4ccccc4)C(=O)C3)c2)n[nH]c1=O [Example 5, 4-Ethyl-6-{4-fluoro-3-[(3-oxo-4-phenylpiperazin-1-yl)carbonyl]benzyl}pyridazin-3(2H)-one trifluoroacetate] | 50 to 500
20 | COc1ccc(CN2CCN(C(=O)c3cc(Cc4n[nH]c(=O)c(C)c4C)ccc3F)CC2=O)cc1 [Example 20, 6-(4-Fluoro-3-{[4-(4-methoxybenzyl)-3-oxopiperazin-1-yl]carbonyl}benzyl)-4,5-dimethylpyridazin-3(2H)-one trifluoroacetate] | 50 to 500
21 | CCc1cc(Cc2ccc(F)c(C(=O)N3CCN(C4CCCCC4)C(=O)C3)c2)n[nH]c1=O [Example 6, 6-{3-[(4-Cyclohexyl-3-oxopiperazin-1-yl)carbonyl]-4-fluorobenzyl}-4-ethylpyridazin-3(2H)-one trifluoroacetate] | 50 to 500
22 | O=C(c1cc(Cc2cc(C(F)(F)F)c(=O)[nH]n2)ccc1F)N1CCN(C2CCCCC2)C(=O)C1 [Example 27, 6-{3-[(4-Cyclohexyl-3-oxopiperazin-1-yl)carbonyl]-4-fluorobenzyl}-3-oxo-4-(trifluoromethyl)-2,3-dihydropyridazin-1-ium trifluoroacetate] | 50 to 500
23 | Cc1c(Cc2ccc(F)c(C(=O)N3CC(=O)N(c4cccc(Cl)c4F)[C@H](C)C3)c2)n[nH]c(=O)c1C [Example 206, 6-(3-{[(3R)-4-(3-Chloro-2-fluorophenyl)-3-methyl-5-oxopiperazin-1-yl]carbonyl}-4-fluorobenzyl)-4,5-dimethylpyridazin-3(2H)-one] | < 50
24 | Cc1c(Cc2ccc(F)c(C(=O)N3CCN(C4CCC(c5ccccc5)CC4)C(=O)C3)c2)n[nH]c(=O)c1C (stereo not drawn) [Example 68, 6-(4-Fluoro-3-{[3-oxo-4-(4-phenylcyclohexyl)piperazin-1-yl]carbonyl}benzyl)-4,5-dimethyl-3-oxo-2,3-dihydropyridazin-1-ium trifluoroacetate] | < 50
25 | Cc1c(Cc2ccc(F)c(C(=O)N3CCN([C@H](C)c4ccccc4)C(=O)C3)c2)n[nH]c(=O)c1C [Example 121, 6-[4-fluoro-3-({3-oxo-4-[(1R)-1-phenylethyl]piperazin-1-yl}carbonyl)benzyl]-4,5-dimethyl-3-oxo-2,3-dihydropyridazin-1-ium trifluoroacetate] | 50 to 500
26 | Cc1c(Cc2ccc(F)c(C(=O)N3CC(=O)N(c4ccc(Cl)c(F)c4)[C@H](C)C3)c2)n[nH]c(=O)c1C [Example 187, 6-(3-{[(3R)-4-(4-Chloro-3-fluorophenyl)-3-methyl-5-oxopiperazin-1-yl]carbonyl}-4-fluorobenzyl)-4,5-dimethylpyridazin-3(2H)-one] | < 50
27 | Cc1c(Cc2ccc(F)c(C(=O)N3CC(=O)N(C4CCC(F)(F)C4)C(C)C3)c2)n[nH]c(=O)c1C (stereo not drawn) [Example 127, 6-(3-{[4-(3,3-Difluorocyclopentyl)-3-methyl-5-oxopiperazin-1-yl]carbonyl}-4-fluorobenzyl)-4,5-dimethylpyridazin-3(2H)-one trifluoroacetate] | < 50
28 | Cc1c(Cc2ccc(F)c(C(=O)N3CC(=O)N(c4ccc(C#N)c(F)c4)[C@@H](C)C3)c2)n[nH]c(=O)c1C [Example 174, 4-((2S)-4-{5-[(4,5-Dimethyl-6-oxo-1,6-dihydropyridazin-3-yl)methyl]-2-fluorobenzoyl}-2-methyl-6-oxopiperazin-1-yl)-2-fluorobenzonitrile] | < 50
29 | Cc1cc(C)cc(N2CCN(C(=O)c3cc(Cc4n[nH]c(=O)c(C)c4C)ccc3F)CC2=O)c1 [Example 23, 6-(3-{[4-(3,5-Dimethylphenyl)-3-oxopiperazin-1-yl]carbonyl}-4-fluorobenzyl)-4,5-dimethylpyridazin-3(2H)-one trifluoroacetate] | 50 to 500
30 | Cc1c(Cc2ccc(F)c(C(=O)N3CCN(C4COc5ccccc5C4)C(=O)C3)c2)n[nH]c(=O)c1C (stereo not drawn) [Example 98, 6-(3-{[4-(3,4-dihydro-2H-chromen-3-yl)-3-oxopiperazin-1-yl]carbonyl}-4-fluorobenzyl)-4,5-dimethyl-3-oxo-2,3-dihydropyridazin-1-ium trifluoroacetate] | < 50
